# Where “and” joins values, the source holds several entries; their conditions need not be identical. Equal values may be shown once. Read-outs that look alike come from different tables or passages of the source.
# Legend:
# A. fumigatus MRL #28383 = assay: Checkerboard combination MIC testing; format: cell-based, Aspergillus fumigatus; conditions: A. fumigatus MRL 28383 (azole-resistant), read at 48 hours, duplicate; for MIC: Aspergillus fumigatus, SCY078, 48 h, drug alone
# Description: (§1) To determine the type of interaction between a representative compound of the enfumafungin derivatives (SCY-078) with several antifungal agents against Aspergillus fumigatus, the most frequent mold causing invasive disease in humans, the checkerboard method was used. The citrate salt of the compound was used in the studies.
# (§2) The checkerboard method involves the determination of percent growth inhibition of fungal cells in the presence of different combinations of drugs. Percent growth inhibition is calculated relative to growth in control wells which contain only cells and no drug. The assay was performed in 96-well microplates in which each row and each column contained twofold serial dilutions of drug A and drug B at concentrations ranging from 0 to slightly higher than their minimum inhibitory concentration (MIC). […] Then the inoculum was added to each well and the growth was evaluated after 48 hrs incubation to determine the first well in which growth was inhibited. The checkerboard-based determination of MICs of antifungal agents in combination was followed by further analysis employing the nonparametric fractional inhibitory concentration index (FICI), which is defined by the following equation:
# (§3) [formula] where MIC-A and MIC-B are the MICs of drugs A and B, respectively.
# (§4) Each drug was initially diluted in either sterile, distilled water or in DMSO, depending on whether the drug was water-soluble or water-insoluble, respectively.
# (§5) Stock solution of SCY-078 was prepared in DMSO at 200 times the concentration desired for use in the drug plates. Serial dilutions of stock solution were conducted in DMSO to obtain eleven 2-fold dilutions of the drug. The SCY-078 solution was then diluted to 4 times the desired concentration in RPMI-1640 medium so that the DMSO would not limit growth of the organism and so that the quantity of DMSO was the same for every dilution.
# (§6) Two 96-well plates are needed to conduct a combination test. Using a multichannel pipette, 50 μl of the lowest concentration of the first drug (Drug A) was added to each well of column 1 of the first plate (plate A) and column 1 of the second plate (plate B; rows A-D). Then, 50 μl of the next highest working dilution of Drug A was added to each well in column 2, continuing with dilutions until all columns 1-11 were filled. Column 12 was left empty. 50 μl of the lowest concentration of Drug B was added to each well in Row D of plate B. 50 μl of the next highest working dilution of Drug B was added to each well in row C of plate B, continuing with dilutions until all rows through row B of plate A were filled.
# (§7) Following the above, 100 μl of organism inoculum was added to every well. The plates were then incubated for 48 hours and visually read after incubation.
# (§8) The objective of the study was to determine whether the combination of SCY-078 with voriconazole, isavuconazole, or amphotericin B would result in a combined in vitro antifungal activity exceeding the sum of the activities of each drug alone. Combination MIC testing was performed using the checkerboard assay described above.
# (§9) Initial MIC determinations of the individual antifungals were performed according to the Clinical and Laboratory Standards Institute (CLSI) M38-A2 standard for the susceptibility testing of filamentous fungi.
# (§10) Combination MIC testing was performed using a checkerboard test method according to the Center for Medical Mycology SOP A11.3. The checkerboard combination test method is a modification of the microdilution antifungal susceptibility test wherein two test compounds are combined in varying concentrations to determine whether they have synergistic, antagonistic, or no effect on the respective MIC values.
# (§11) Antifungals were serially diluted two-fold in RPMI medium to produce eleven concentrations each and were combined in wells of a microtiter plate. Two rows consisting of serial dilutions of each individual drug were included. All combination testing was conducted in duplicate. […]
# A. fumigatus MRL #28378 = assay: Checkerboard combination MIC testing; format: cell-based, Aspergillus fumigatus; conditions: A. fumigatus MRL 28378 (wild-type), read at 48 hours, duplicate; for MIC per drug in Combination: SCY-078 combined with isavuconazole; for MIC: Aspergillus fumigatus, SCY078, 48 h
# Description: as §1, §2, §3, §4, §5, §6, §7, §8, §9, §10, §11
# A. fumigatus MRL #28401 = assay: Checkerboard combination MIC testing; format: cell-based, Aspergillus fumigatus; conditions: A. fumigatus MRL 28401 (wild-type), read at 48 hours, duplicate; for MIC per drug in Combination: SCY-078 combined with isavuconazole; for MIC: Aspergillus fumigatus, SCY078, 48 h
# Description: as §1, §2, §3, §4, §5, §6, §7, §8, §9, §10, §11
# A. fumigatus MRL #28382 = assay: Checkerboard combination MIC testing; format: cell-based, Aspergillus fumigatus; conditions: A. fumigatus MRL 28382 (wild-type), read at 48 hours, duplicate; for MIC: Aspergillus fumigatus, SCY078, 48 h
# Description: as §1, §2, §3, §4, §5, §6, §7, §8, §9, §10, §11
# A. fumigatus MRL #20438 = assay: Checkerboard combination MIC testing; format: cell-based, Aspergillus fumigatus; conditions: A. fumigatus MRL 20438 (wild-type), read at 48 hours, duplicate; for MIC per drug in Combination: SCY-078 combined with isavuconazole; for MIC: Aspergillus fumigatus, SCY078, 48 h
# Description: as §1, §2, §3, §4, §5, §6, §7, §8, §9, §10, §11
# Solubility in water = format: physicochemical
# Description: as §4
# [1] = SCY-078 combined with isavuconazole
# [2] = SCY-078/isavuconazole test, read-out: MIC per drug Alone
# [3] = drug alone, SCY-078/isavuconazole test, read-out: MIC per drug Alone
# [4] = SCY-078 combined with amphotericin B
# [5] = SCY-078 combined with voriconazole
# [6] = drug alone, SCY-078/voriconazole test
# [7] = drug alone, SCY-078/amphotericin B test, read-out: MIC Alone
# [8] = drug alone, SCY-078/voriconazole test, read-out: MIC Alone
# [9] = drug alone, SCY-078/amphotericin B test
# [10] = drug alone, SCY-078/isavuconazole test
structure (smiles),measurement,setting,value
"C[C@@H](c1nc(-c2ccc(C#N)cc2)cs1)[C@](O)(Cn1cncn1)c1cc(F)ccc1F [Isavuconazole, isavuconazole]",MIC per drug in Combination,A. fumigatus MRL #28383; [1],>8 µg/mL and 4 µg/mL
same,MIC,A. fumigatus MRL #28383; [2],> 8 µg/mL
same,MIC per drug in Combination,A. fumigatus MRL #28378,0.125 µg/mL and 0.25 µg/mL
same,MIC,A. fumigatus MRL #28378; [3],1 µg/mL
same,MIC per drug in Combination,A. fumigatus MRL #28401,0.25 µg/mL
same,MIC,A. fumigatus MRL #28401; [3],1 µg/mL
same,MIC per drug in Combination,A. fumigatus MRL #28382; [1],0.25 µg/mL
same,MIC per drug in Combination,A. fumigatus MRL #20438,0.5 µg/mL
same,MIC,A. fumigatus MRL #20438; [3],1 µg/mL
"CC(C)[C@@H](C)[C@@]1(C)CC[C@]2(C)[C@H]3CC[C@@H]4[C@@]5(COC[C@@]4(C)[C@@H](OC[C@](C)(N)C(C)(C)C)[C@H](n4ncnc4-c4ccncc4)C5)C3=CC[C@@]2(C)[C@@H]1C(=O)O [SCY-078, (1S,4aR,6aS,7R,8R,10aR,10bR,12aR,14R,15R)-15-[[(2R)-2-amino-2,3,3-trimethylbutyl]oxy]-8-[(1R)-1,2-dimethylpropyl]-14-[5-(4-pyridinyl)-1H-1,2,4-triazol-1-yl]-1,6,6a,7,8,9,10,10a,10b,11,12,12a-dodecahydro-1,6a,8,10a-tetramethyl-4H-1,4a-propano-2H-phenanthro[1,2-c]pyran-7-carboxylic acid]",Solubility in water,Solubility in water,not soluble in water
same,MIC in Combination,A. fumigatus MRL #28383; [4],0.016 µg/mL
same,MIC in Combination,A. fumigatus MRL #28383; [5],0.031 µg/mL
same,MIC,"A. fumigatus MRL #28383; SCY-078/amphotericin B test, read-out: MIC Alone",4 µg/mL
same,MIC,A. fumigatus MRL #28383; [2],4 µg/mL
same,MIC,"A. fumigatus MRL #28383; SCY-078/voriconazole test, read-out: MIC Alone",8 µg/mL
same,MIC in Combination,A. fumigatus MRL #28378; [4],0.016 µg/mL
same,MIC per drug in Combination,A. fumigatus MRL #28378,0.125 µg/mL
same,MIC in Combination,A. fumigatus MRL #28378; [5],0.5 µg/mL
same,MIC Alone,A. fumigatus MRL #28378; [6],4 µg/mL
same,MIC,A. fumigatus MRL #28378; [7],4 µg/mL
same,MIC,A. fumigatus MRL #28378; [3],4 µg/mL
same,MIC,A. fumigatus MRL #28378; [8],8 µg/mL
same,MIC in Combination,A. fumigatus MRL #28401; [4],0.016 µg/mL and 0.031 µg/mL
same,MIC per drug in Combination,A. fumigatus MRL #28401,0.25 µg/mL and 0.5 µg/mL
same,MIC in Combination,A. fumigatus MRL #28401; [5],0.25 µg/mL and 0.125 µg/mL
same,MIC Alone,A. fumigatus MRL #28401; [9],8 µg/mL
same,MIC per drug Alone,A. fumigatus MRL #28401; [10],8 µg/mL
same,MIC,A. fumigatus MRL #28401; [7],4 µg/mL
same,MIC,A. fumigatus MRL #28401; [3],4 µg/mL
same,MIC,A. fumigatus MRL #28401; [8],8 µg/mL
same,MIC Alone,A. fumigatus MRL #28382; [9],8 µg/mL
same,MIC per drug Alone,A. fumigatus MRL #28382; [10],4 µg/mL
same,MIC,A. fumigatus MRL #28382; [7],4 µg/mL
same,MIC,A. fumigatus MRL #28382; [3],8 µg/mL
same,MIC,A. fumigatus MRL #28382; [8],8 µg/mL
same,MIC in Combination,A. fumigatus MRL #20438; [4],0.016 µg/mL
same,MIC per drug in Combination,A. fumigatus MRL #20438,0.016 µg/mL
same,MIC in Combination,A. fumigatus MRL #20438; [5],0.125 µg/mL and 0.25 µg/mL
same,MIC Alone,A. fumigatus MRL #20438; [6],4 µg/mL
same,MIC,A. fumigatus MRL #20438; [7],4 µg/mL
same,MIC,A. fumigatus MRL #20438; [3],4 µg/mL
same,MIC,A. fumigatus MRL #20438; [8],8 µg/mL
